Reference: EP1222163B1, “2'-SUBSTITUTED 1,1'-BIPHENYL-2-CARBONAMIDES, METHOD FOR THE PRODUCTION THEREOF, USE THEREOF AS A MEDICAMENT AND PHARMACEUTICAL PREPARATIONS CONTAINING SAID COMPOUNDS” (Sanofi-Aventis Deutschland GmbH, priority 1999, dated 2001)
pIC50: −log10 of the molar value.

Biological target: T1, Kv1.5-Kanäle aus dem Menschen (Homo sapiens, UniProt P22460)
T1 construct: expressed in transfected cells; host or cells: Xenopus laevis oocytes injected with in vitro synthesised Kv1.5-coding RNA
Experiment: Kv1.5 currents in Xenopus oocytes, two-microelectrode voltage clamp
Type: cell-based
Text: Kv1.5-Kanäle aus dem Menschen wurden in Xenopus Oozyten expremiert. Hierfür wurden zuerst Oozyten aus Xenopus laevis isoliert und defollikuliert. Anschließend wurde in diese Oozyten in vitro synthetisierte Kv1.5 kodierende RNA injiziert. Nach 1 - 7 Tagen Kv1.5-Proteinexpression wurden an den Oozyten mit der Zwei-Mikroelektroden Voltage-Clamp Technik Kv1.5-Ströme gemessen. Die Kv1.5-Kanäle wurden hierbei in der Regel mit 500 ms dauernden Spannungssprüngen auf 0 mV und 40 mV aktiviert. Das Bad wurde mit einer Lösung der nachfolgenden Zusammensetzung durchspült: NaCl 96 mM, KCl 2 mM, CaCl2 1,8 mM, MgCl2 1 mM, HEPES 5 mM (titriert mit NaOH auf pH 7,4). Diese Experimente wurden bei Raumtemperatur durchgeführt. Zur Datenerhebung und Analyse wurden eingesetzt: Geneclamp Verstärker (Axon Instruments, Foster City, USA) und MacLab D/A-Umwandler und Software (ADInstruments, Castle Hill, Australia). Die erfindungsgemäßen Substanzen wurden getestet, indem sie in unterschiedlichen Konzentrationen der Badlösung zugefügt wurden. Die Effekte der Substanzen wurden als prozentuale Inhibition des Kv1.5-Kontrollstromes berechnet, der erhalten wurde, wenn der Lösung keine Substanz zugesetzt wurde. Die Daten wurden anschließend mit der Hill-Gleichung extrapoliert, um die Hemmkonzentrationen IC50 für die jeweiligen Substanzen zu bestimmen.

T1 sequence (P22460 whole entry): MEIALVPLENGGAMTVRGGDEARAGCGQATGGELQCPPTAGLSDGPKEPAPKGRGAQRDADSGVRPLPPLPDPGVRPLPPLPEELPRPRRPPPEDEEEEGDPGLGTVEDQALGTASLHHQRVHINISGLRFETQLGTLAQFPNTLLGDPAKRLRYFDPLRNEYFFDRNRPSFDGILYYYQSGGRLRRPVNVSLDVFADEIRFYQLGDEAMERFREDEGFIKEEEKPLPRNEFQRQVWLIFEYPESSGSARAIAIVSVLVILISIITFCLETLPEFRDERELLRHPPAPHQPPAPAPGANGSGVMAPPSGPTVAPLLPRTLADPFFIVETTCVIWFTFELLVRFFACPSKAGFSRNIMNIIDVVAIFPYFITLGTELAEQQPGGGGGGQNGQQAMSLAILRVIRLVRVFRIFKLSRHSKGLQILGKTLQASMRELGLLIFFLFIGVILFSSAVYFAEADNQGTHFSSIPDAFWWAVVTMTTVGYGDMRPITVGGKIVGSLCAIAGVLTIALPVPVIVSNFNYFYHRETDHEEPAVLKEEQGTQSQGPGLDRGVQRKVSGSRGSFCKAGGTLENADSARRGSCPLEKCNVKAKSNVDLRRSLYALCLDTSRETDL

## NC(=O)[C@H](Cc1ccccc1)NC(=O)c1ccccc1-c1ccccc1CNS(=O)(=O)c1cccc2cccnc12 [Beispiel 12 l]
  pIC50: 4.99
